Source: patent US9981975B2, “Pyrrolotriazine compounds as tam inhibitors” (Incyte Corporation, priority 2016, dated 2018)

Tests used:
Type in all cases: biochemical
c-Mer = c-Mer (Homo sapiens (Human), UniProt Q12866); test: TAM Enzymatic Assay (HTRF), Mer; conditions: 60 min, room temperature
Experimental: The kinase assay buffer contained 50 mM HEPES, pH7.5, 10 mM MgCl2, 1 mM EGTA, 0.01% NP-40 and 2 mM DTT. 0.1 ul test compounds dissolved in DMSO were transferred from compound plates to white 384-well assay plates (Greiner […] plates). […] 4 ul enzyme solution (or assay buffer for the enzyme blank) was added to the appropriate wells in each plate, and then 4 ul/well substrate solution was added to initiate the reaction. The plate was protected from light and incubated at room temperature for 60 min. […] The plate was incubated for 1 h at room temperature, and HTRF (homogenous time resolved fluorescence) signal was measured on a PHERAstar FS plate reader (BMG labtech). Percentage of inhibition was calculated for each concentration and IC50 value was generated from curve fitting with GraphPad Prism software.

Tyro3 = Tyro3 (Homo sapiens (Human), UniProt Q06418); test: TAM Enzymatic Assay (HTRF), Tyro3; conditions: Tyro3, 60 min, room temperature
Tyro3, sequence (Q06418 41-890): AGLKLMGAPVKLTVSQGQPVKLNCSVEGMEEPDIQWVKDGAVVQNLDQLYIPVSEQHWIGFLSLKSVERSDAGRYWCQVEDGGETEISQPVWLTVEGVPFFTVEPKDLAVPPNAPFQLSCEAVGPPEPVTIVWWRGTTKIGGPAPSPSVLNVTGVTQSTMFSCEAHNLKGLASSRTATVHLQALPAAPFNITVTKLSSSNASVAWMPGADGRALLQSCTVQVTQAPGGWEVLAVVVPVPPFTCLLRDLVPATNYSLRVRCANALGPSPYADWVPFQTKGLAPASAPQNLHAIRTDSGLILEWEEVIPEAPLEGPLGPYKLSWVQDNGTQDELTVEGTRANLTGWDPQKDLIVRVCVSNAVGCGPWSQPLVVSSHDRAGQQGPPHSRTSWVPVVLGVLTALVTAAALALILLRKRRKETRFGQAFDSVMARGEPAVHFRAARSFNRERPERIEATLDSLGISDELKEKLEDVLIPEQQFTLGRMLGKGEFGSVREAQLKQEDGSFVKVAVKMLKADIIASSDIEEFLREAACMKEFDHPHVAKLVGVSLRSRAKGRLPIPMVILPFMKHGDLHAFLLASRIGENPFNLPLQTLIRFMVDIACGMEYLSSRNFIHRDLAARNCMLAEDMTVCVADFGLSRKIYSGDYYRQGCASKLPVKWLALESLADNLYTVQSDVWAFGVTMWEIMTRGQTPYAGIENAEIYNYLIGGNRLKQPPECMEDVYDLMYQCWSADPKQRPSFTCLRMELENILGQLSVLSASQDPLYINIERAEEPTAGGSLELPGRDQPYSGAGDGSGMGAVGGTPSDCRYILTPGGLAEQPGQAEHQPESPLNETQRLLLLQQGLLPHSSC
Method in brief: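 Reactions ran 60 min at room temperature, protected from light, started by substrate addition to enzyme plus DMSO compound, in pH 7.5 HEPES buffer with 10 mM MgCl2, 1 mM EGTA, 0.01% NP-40, 2 mM DTT.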

phosphor-Axl = phosphor-Axl (Homo sapiens (Human), UniProt P30530); test: TAM Enzymatic Assay (HTRF), Axl; conditions: recombinant autophosphorylated Axl, 60 min, room temperature
phosphor-Axl, sequence (P30530 26-894): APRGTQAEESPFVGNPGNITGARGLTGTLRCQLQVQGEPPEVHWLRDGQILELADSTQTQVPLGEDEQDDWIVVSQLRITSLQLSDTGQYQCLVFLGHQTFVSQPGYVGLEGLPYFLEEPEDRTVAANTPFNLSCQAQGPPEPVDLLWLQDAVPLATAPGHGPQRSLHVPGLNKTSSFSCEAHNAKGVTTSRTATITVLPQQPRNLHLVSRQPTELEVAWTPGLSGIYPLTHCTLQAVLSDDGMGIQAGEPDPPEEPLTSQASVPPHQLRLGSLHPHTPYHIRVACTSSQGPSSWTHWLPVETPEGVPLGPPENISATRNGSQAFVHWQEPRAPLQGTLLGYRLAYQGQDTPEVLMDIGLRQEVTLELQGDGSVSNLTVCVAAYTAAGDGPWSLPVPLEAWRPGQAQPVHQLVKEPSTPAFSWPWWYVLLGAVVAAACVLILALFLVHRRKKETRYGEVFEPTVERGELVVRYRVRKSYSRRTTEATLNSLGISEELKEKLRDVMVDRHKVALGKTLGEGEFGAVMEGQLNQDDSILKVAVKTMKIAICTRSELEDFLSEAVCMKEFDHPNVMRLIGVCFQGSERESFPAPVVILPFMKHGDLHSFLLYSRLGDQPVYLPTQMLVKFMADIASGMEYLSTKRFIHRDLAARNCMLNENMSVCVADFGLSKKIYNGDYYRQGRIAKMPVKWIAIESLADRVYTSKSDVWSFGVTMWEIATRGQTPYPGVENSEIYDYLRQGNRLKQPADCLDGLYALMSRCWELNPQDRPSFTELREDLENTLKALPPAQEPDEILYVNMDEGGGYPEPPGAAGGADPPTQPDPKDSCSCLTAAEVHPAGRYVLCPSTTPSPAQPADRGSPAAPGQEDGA

c-Mer, sequence (Q12866 21-999): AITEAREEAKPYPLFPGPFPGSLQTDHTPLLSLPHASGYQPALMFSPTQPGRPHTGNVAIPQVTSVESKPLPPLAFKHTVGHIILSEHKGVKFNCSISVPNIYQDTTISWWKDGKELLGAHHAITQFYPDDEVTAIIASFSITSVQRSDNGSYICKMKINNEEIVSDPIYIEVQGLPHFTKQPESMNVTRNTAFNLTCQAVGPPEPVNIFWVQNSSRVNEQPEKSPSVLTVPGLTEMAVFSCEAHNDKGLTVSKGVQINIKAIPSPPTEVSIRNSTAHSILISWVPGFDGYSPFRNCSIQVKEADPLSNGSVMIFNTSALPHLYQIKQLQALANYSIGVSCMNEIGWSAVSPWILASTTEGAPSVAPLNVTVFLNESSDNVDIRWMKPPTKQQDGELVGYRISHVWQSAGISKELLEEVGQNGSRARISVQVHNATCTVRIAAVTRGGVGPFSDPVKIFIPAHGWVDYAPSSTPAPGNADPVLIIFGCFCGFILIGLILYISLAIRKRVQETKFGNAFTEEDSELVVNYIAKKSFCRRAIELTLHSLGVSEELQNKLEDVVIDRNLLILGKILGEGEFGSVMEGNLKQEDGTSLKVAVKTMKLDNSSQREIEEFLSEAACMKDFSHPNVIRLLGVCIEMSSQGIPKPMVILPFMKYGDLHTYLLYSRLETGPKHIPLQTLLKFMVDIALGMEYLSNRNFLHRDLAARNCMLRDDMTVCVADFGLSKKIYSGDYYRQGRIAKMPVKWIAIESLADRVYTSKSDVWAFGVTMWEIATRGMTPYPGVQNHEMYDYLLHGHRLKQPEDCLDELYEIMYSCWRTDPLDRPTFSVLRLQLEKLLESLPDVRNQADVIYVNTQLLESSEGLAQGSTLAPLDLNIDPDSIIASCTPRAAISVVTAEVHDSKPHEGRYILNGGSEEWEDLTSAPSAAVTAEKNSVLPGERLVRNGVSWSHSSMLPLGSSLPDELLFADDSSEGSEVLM

SMILES | IC50 (c-Mer) | IC50 (Tyro3) | IC50 (phosphor-Axl)
Nc1ncnn2c(C3CCN(CCO)CC3)cc(-c3ccc(NC(=O)c4cccn(-c5ccccc5)c4=O)cc3)c12 [Example 52, N-(4-{4-Amino-7-[1-(2-hydroxyethyl)piperidin-4-yl]pyrrolo[2,1-f][1,2,4]triazin-5-yl}phenyl)-2-oxo-1-phenyl-1,2-dihydropyridine-3-carboxamide] | ≤ 5 nM | 10 to 100 nM | ≤ 5 nM
Nc1ncnn2c(C3CCN(CCO)CC3)cc(-c3ccc(NC(=O)c4cccn(-c5ccccc5)c4=O)cc3F)c12 [Example 54] | ≤ 5 nM | 10 to 100 nM | ≤ 5 nM
Nc1ncnn2c(C3CCN(CCO)CC3)cc(-c3ccc(NC(=O)c4cccn(-c5ccc(F)cc5)c4=O)cc3F)c12 [Example 55] | ≤ 5 nM | 5 to 10 nM | ≤ 5 nM
CC(C)n1cc(C(=O)Nc2ccc(-c3cc(C4CCN(C(=O)N(C)C)CC4)n4ncnc(N)c34)cc2)c(=O)n(-c2ccccc2)c1=O [Example 61, N-(4-(4-Amino-7-(1-(dimethylcarbamoyl)piperidin-4-yl)pyrrolo[1,2-f][1,2,4]triazin-5-yl)phenyl)-1-isopropyl-2,4-dioxo-3-phenyl-1,2,3,4-tetrahydropyrimidine-5-carboxamide] | ≤ 5 nM | 10 to 100 nM | ≤ 5 nM
CCN(C)C(=O)N1CCC(c2cc(-c3ccc(NC(=O)c4cn(C(C)C)c(=O)n(-c5ccccc5)c4=O)cc3)c3c(N)ncnn23)CC1 [Example 62, N-(4-(4-Amino-7-(1-(ethyl(methyl)carbamoyl)piperidin-4-yl)pyrrolo[1,2-f][1,2,4]triazin-5-yl)phenyl)-1-isopropyl-2,4-dioxo-3-phenyl-1,2,3,4-tetrahydropyrimidine-5-carboxamide] | ≤ 5 nM | 10 to 100 nM | ≤ 5 nM
CC(C)C(=O)N1CCC(c2cc(-c3ccc(NC(=O)c4cn(C(C)C)c(=O)n(-c5ccccc5)c4=O)cc3)c3c(N)ncnn23)CC1 [Example 63, N-(4-(4-Amino-7-(1-isobutyrylpiperidin-4-yl)pyrrolo[1,2-f][1,2,4]triazin-5-yl)phenyl)-1-isopropyl-2,4-dioxo-3-phenyl-1,2,3,4-tetrahydropyrimidine-5-carboxamide] | ≤ 5 nM | 10 to 100 nM | ≤ 5 nM
CC(C)n1cc(C(=O)Nc2ccc(-c3cc(C4CCN(C)CC4)n4ncnc(N)c34)cc2)c(=O)n(-c2ccccc2)c1=O [Example 64, N-(4-(4-Amino-7-(1-methylpiperidin-4-yl)pyrrolo[1,2-f][1,2,4]triazin-5-yl)phenyl)-1-isopropyl-2,4-dioxo-3-phenyl-1,2,3,4-tetrahydropyrimidine-5-carboxamide] | ≤ 5 nM | 10 to 100 nM | ≤ 5 nM
CC(C)n1cc(C(=O)Nc2ccc(-c3cc(C4CCN(C(=O)N(C)C)CC4)n4ncnc(N)c34)cc2)c(=O)n(-c2ccc(F)cc2)c1=O [Example 65, N-(4-(4-Amino-7-(1-(dimethylcarbamoyl)piperidin-4-yl)pyrrolo[1,2-f][1,2,4]triazin-5-yl)phenyl)-3-(4-fluorophenyl)-1-isopropyl-2,4-dioxo-1,2,3,4-tetrahydropyrimidine-5-carboxamide] | ≤ 5 nM | 10 to 100 nM | ≤ 5 nM
CCn1cc(C(=O)Nc2ccc(-c3cc(C4CCN(C(=O)N(C)C)CC4)n4ncnc(N)c34)cc2)c(=O)n(-c2ccc(F)cc2)c1=O [Example 67, N-(4-(4-Amino-7-(1-(dimethylcarbamoyl)piperidin-4-yl)pyrrolo[1,2-f][1,2,4]triazin-5-yl)phenyl)-1-ethyl-3-(4-fluorophenyl)-2,4-dioxo-1,2,3,4-tetrahydropyrimidine-5-carboxamide] | ≤ 5 nM | > 100 nM | ≤ 5 nM
CCn1cc(C(=O)Nc2ccc(-c3cc(C4CCN(C(=O)N5CCOCC5)CC4)n4ncnc(N)c34)cc2)c(=O)n(-c2ccc(F)cc2)c1=O [Example 68, N-(4-(4-Amino-7-(1-(morpholine-4-carbonyl)piperidin-4-yl)pyrrolo[1,2-f][1,2,4]triazin-5-yl)phenyl)-1-ethyl-3-(4-fluorophenyl)-2,4-dioxo-1,2,3,4-tetrahydropyrimidine-5-carboxamide] | ≤ 5 nM | > 100 nM | ≤ 5 nM
CC(C)n1cc(C(=O)Nc2ccc(-c3cc(C4CCN(C(=O)N(C)C)CC4)n4ncnc(N)c34)cc2)c(=O)n(-c2cccc(F)c2)c1=O [Example 70, N-(4-(4-Amino-7-(1-(dimethylcarbamoyl)piperidin-4-yl)pyrrolo[1,2-f][1,2,4]triazin-5-yl)phenyl)-3-(3-fluorophenyl)-1-isopropyl-2,4-dioxo-1,2,3,4-tetrahydropyrimidine-5-carboxamide] | ≤ 5 nM | 10 to 100 nM | ≤ 5 nM
CC(C)C(=O)N1CCC(c2cc(-c3ccc(NC(=O)c4cc5c(n(-c6ccccc6)c4=O)CCCC5=O)cc3)c3c(N)ncnn23)CC1 [Example 74, N-(4-(4-Amino-7-(1-isobutyrylpiperidin-4-yl)pyrrolo[1,2-f][1,2,4]triazin-5-yl)phenyl)-2,5-dioxo-1-phenyl-1,2,5,6,7,8-hexahydroquinoline-3-carboxamide] | ≤ 5 nM | 10 to 100 nM | ≤ 5 nM
CC(C)C(=O)N1CCC(c2cc(-c3ccc(NC(=O)c4cn(C(C)C)c(=O)n(-c5ccccc5)c4=O)cc3F)c3c(N)ncnn23)CC1 [Example 75, N-(4-(4-Amino-7-(1-isobutyrylpiperidin-4-yl)pyrrolo[1,2-f][1,2,4]triazin-5-yl)-3-fluorophenyl)-1-isopropyl-2,4-dioxo-3-phenyl-1,2,3,4-tetrahydropyrimidine-5-carboxamide] | ≤ 5 nM | 10 to 100 nM | ≤ 5 nM
CC(C)C(=O)N1CCC(c2cc(-c3ccc(NC(=O)c4cn(C(C)C)c(=O)n(-c5cccnc5)c4=O)cc3)c3c(N)ncnn23)CC1 [Example 78, N-(4-(4-Amino-7-(1-isobutyrylpiperidin-4-yl)pyrrolo[1,2-f][1,2,4]triazin-5-yl)phenyl)-1-isopropyl-2,4-dioxo-3-(pyridin-3-yl)-1,2,3,4-tetrahydropyrimidine-5-carboxamide] | ≤ 5 nM | 10 to 100 nM | ≤ 5 nM
CCn1cc(C(=O)Nc2ccc(-c3cc(C4CCN(C(=O)[C@@H](C)O)CC4)n4ncnc(N)c34)cc2)c(=O)n(-c2ccc(F)cc2)c1=O [Example 79, (R)—N-(4-(4-Amino-7-(1-(2-hydroxypropanoyl)piperidin-4-yl)pyrrolo[1,2-f][1,2,4]triazin-5-yl)phenyl)-1-ethyl-3-(4-fluorophenyl)-2,4-dioxo-1,2,3,4-tetrahydropyrimidine-5-carboxamide] | ≤ 5 nM | 10 to 100 nM | ≤ 5 nM
CC(C)n1cc(C(=O)Nc2ccc(-c3cc(C4CCN(CC(=O)N(C)C)CC4)n4ncnc(N)c34)cc2)c(=O)n(-c2ccccc2)c1=O [Example 81, N-(4-(4-Amino-7-(1-(2-(dimethylamino)-2-oxoethyl)piperidin-4-yl)pyrrolo[1,2-f][1,2,4]triazin-5-yl)phenyl)-1-isopropyl-2,4-dioxo-3-phenyl-1,2,3,4-tetrahydropyrimidine-5-carboxamide] | ≤ 5 nM | 10 to 100 nM | ≤ 5 nM
CC(C)C(=O)N1CCC(c2cc(-c3ccc(NC(=O)c4cn(C(C)C)c(=O)n(-c5ccccn5)c4=O)cc3)c3c(N)ncnn23)CC1 [Example 83, N-(4-(4-Amino-7-(1-isobutyrylpiperidin-4-yl)pyrrolo[1,2-f][1,2,4]triazin-5-yl)phenyl)-1-isopropyl-2,4-dioxo-3-(pyridin-2-yl)-1,2,3,4-tetrahydropyrimidine-5-carboxamide] | ≤ 5 nM | 10 to 100 nM | ≤ 5 nM
CC(C)C(=O)N1CCC(c2cc(-c3ccc(NC(=O)c4cn(C(C)C)c(=O)n(-c5cnn(C)c5)c4=O)cc3)c3c(N)ncnn23)CC1 [Example 87, N-(4-(4-Amino-7-(1-isobutyrylpiperidin-4-yl)pyrrolo[2,1-f][1,2,4]triazin-5-yl)phenyl)-1-isopropyl-3-(1-methyl-1H-pyrazol-4-yl)-2,4-dioxo-1,2,3,4-tetrahydropyrimidine-5-carboxamide] | ≤ 5 nM | > 100 nM | ≤ 5 nM
CC(C)C(=O)N1CCC(c2cc(-c3ccc(NC(=O)c4cn(C(C)C)c(=O)n(-c5ccn(C)n5)c4=O)cc3)c3c(N)ncnn23)CC1 [Example 88, N-(4-(4-Amino-7-(1-isobutyrylpiperidin-4-yl)pyrrolo[2,1-f][1,2,4]triazin-5-yl)phenyl)-1-isopropyl-3-(1-methyl-1H-pyrazol-3-yl)-2,4-dioxo-1,2,3,4-tetrahydropyrimidine-5-carboxamide] | ≤ 5 nM | 10 to 100 nM | ≤ 5 nM
CC(C)n1cc(C(=O)Nc2ccc(-c3cc(C4CCC(N(C)C)CC4)n4ncnc(N)c34)cc2)c(=O)n(-c2ccccc2)c1=O (stereo not drawn) [Example 93, N-(4-(4-Amino-7-(4-(dimethylamino)cyclohexyl)pyrrolo[2,1-f][1,2,4]triazin-5-yl)phenyl)-1-isopropyl-2,4-dioxo-3-phenyl-1,2,3,4-tetrahydropyrimidine-5-carboxamide] | ≤ 5 nM | ≤ 5 nM | ≤ 5 nM
